Read-outs that look alike come from different tables or passages of the source.
What was measured:
[1] = target: T1, B-Raf kinase (SEQ ID NO: 1) (Homo sapiens, UniProt P15056); assay: Biochemical Assay for B-Raf (coupled pyruvate kinase/lactate dehydrogenase assay); conditions: 1 mM ATP; read-out: BRAF (inhibition of biochemical activity, IC50)
T1 construct: GST (N); purchased Sigma

[2] = target: T2, C-Raf kinase (SEQ ID NO: 2) (Homo sapiens, UniProt P04049, Y340D/Y341D); assay: Biochemical Assay for C-Raf (coupled pyruvate kinase/lactate dehydrogenase assay); conditions: 1 mM ATP; read-out: CRAF (inhibition of biochemical activity, IC50)
T2 construct: C-Raf residues 306-end; Y340D, Y341D with; GST (N); purchased Sigma
T2 sequence (P04049 307-648 Y340D/Y341D): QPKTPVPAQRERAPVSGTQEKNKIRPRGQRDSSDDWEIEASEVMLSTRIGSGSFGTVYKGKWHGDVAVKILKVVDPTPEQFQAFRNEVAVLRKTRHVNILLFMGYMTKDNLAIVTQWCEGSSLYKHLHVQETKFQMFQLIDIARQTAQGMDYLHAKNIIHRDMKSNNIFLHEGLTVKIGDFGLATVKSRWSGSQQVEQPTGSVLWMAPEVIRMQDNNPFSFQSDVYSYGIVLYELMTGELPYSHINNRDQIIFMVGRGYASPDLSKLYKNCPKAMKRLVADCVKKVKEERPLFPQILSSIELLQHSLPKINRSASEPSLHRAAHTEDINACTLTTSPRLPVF

MiaPaca-2 cells = assay: MiaPaca-2 Cell Proliferation Assay; format: cell-based; conditions: Table 2, read-out: Inhibition of cell proliferation in MiaPaca-2 (IC50 class)
Outline: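 Viability was read as resazurin fluorescence (540 nm excitation, 600 nm emission) after 5–6 h with dye. Compounds were tested as serial dilutions in triplicate, with IC50 derived from the dose–response.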

HCT-116 cells = assay: HCT-116 Cell Proliferation Assay; format: cell-based; conditions: Table 2, read-out: Inhibition of cell proliferation in HCT-116 (IC50 class)
Outline: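 HCT-116 cells, 375/well in McCoy's 5A with 10% FBS, exposed to serial compound dilutions in triplicate for 67 to 72 hours at 37 °C. Viability read by resazurin fluorescence (ex 540/em 600 nm) after a further 4 to 5 h; IC50 values calculated.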

HPAF-II cells = assay: HPAF-II Cell Proliferation Assay; format: cell-based; conditions: HPAF-II cells, Table 2, read-out: Inhibition of cell proliferation in HPAF-II (IC50 class)
Outline: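 HPAF-II cells (750/well) in complete MEM with 10% FBS were exposed to serially diluted compound in triplicate for 115–120 h at 37 °C, 5% CO2. Resazurin was then added for 18–24 h more; fluorescence (ex 540/em 600 nm) gave IC50.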

Pa16c cells = assay: Pa16c Cell Proliferation Assay; format: cell-based; conditions: Table 2, read-out: Inhibition of cell proliferation in Pa16c (IC50 class)
Outline: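 Mouse Pa16c cells, 750/well in DMEM with 10% FBS, exposed to serially diluted compound in triplicate for 67 to 72 h at 37° C. Viability read by resazurin reduction over a further 18 to 24 h (ex 540/em 600 nm). IC50 calculated from the dose-response.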

[3] = Homo sapiens, MIA PaCa-2, MiaPaca-2 cells
[4] = Homo sapiens, HCT-116, HCT-116 cells

T1 sequence (P15056 416-766): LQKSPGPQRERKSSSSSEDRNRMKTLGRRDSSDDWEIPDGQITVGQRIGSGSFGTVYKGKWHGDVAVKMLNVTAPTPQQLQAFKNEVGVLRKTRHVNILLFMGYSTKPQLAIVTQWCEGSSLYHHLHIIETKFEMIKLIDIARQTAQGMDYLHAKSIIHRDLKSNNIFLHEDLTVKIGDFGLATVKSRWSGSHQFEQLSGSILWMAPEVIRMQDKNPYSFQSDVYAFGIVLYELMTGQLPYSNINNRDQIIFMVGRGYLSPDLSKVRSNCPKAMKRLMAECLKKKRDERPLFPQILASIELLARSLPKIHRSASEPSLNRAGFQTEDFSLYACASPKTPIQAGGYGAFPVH

SMILES	IC50 [1] [nM]	IC50 [2] [nM]	IC50 (MiaPaca-2 cells; [3]) [nM]	IC50 (HCT-116 cells; [4]) [nM]	IC50 (HPAF-II cells; Homo sapiens, HPAF-II) [nM]	IC50 (Pa16c cells) [nM]	IC50 (MiaPaca-2 cells; MiaPaca-2 cells) [nM]	IC50 (HCT-116 cells; HCT-116 cells) [nM]	IC50 (HPAF-II cells) [nM]
CC(=O)Nc1cc(-c2cc(-c3cc(NC(=O)c4ccc(C(F)F)nc4)ccc3C)ccn2)ccn1 [Example 1, N-(3-(2′-acetamido-[2,4′-bipyridin]-4-yl)-4-methylphenyl)-6-(difluoromethyl)nicotinamide]	< 100	< 100	< 100	< 100	< 100	< 100	–	–	–
Cc1ccc(NC(=O)c2cncc(C(F)(F)F)n2)cc1-c1cncc(-c2ccnc(NC(=O)C3CC3)c2)c1 [Example 5]	< 100	< 100	1000 to 10000	1000 to 10000	1000 to 10000	1000 to 10000	–	–	–
Cc1ccc(NC(=O)c2cncc(C(F)(F)F)n2)cc1-c1cncc(-c2cc(NC(=O)C3CC3)ncn2)c1 [Example 61]	< 100	< 100	1000 to 10000	< 100	1000 to 10000	1000 to 10000	–	–	–
Cc1ccc(NC(=O)c2cc(Cl)cnn2)cc1-c1ccnc(-c2ccnc(NC(=O)C3CC3)c2)c1 [Example 40]	< 100	< 100	500 to 1000	100 to 500	500 to 1000	500 to 1000	–	–	–
Cc1ccc(NC(=O)c2cc(C(C)(F)F)cnn2)cc1-c1ccnc(-c2ccsc2)c1 [Example 148]	1000 to 10000	500 to 1000	100 to 500	< 100	100 to 500	100 to 500	–	–	–
Cc1ccc(NC(=O)c2cc(C3CC3)cnn2)cc1-c1cc(-c2ccnc(NC(=O)C3CC3)c2)nc(NCCO)n1 [Example 15]	< 100	< 100	100 to 500	< 100	1000 to 10000	1000 to 10000	–	–	–
Cc1ccc(NC(=O)c2cc(C(F)(F)F)cnn2)cc1-c1ccnc(-c2cnn(C)n2)c1 [Example 139]	100 to 500	< 100	100 to 500	100 to 500	100 to 500	500 to 1000	–	–	–
Cc1ccc(NC(=O)c2cc(C(F)(F)F)cnn2)cc1-c1ccnc(-c2ccnc(NC=O)c2)c1 [Example 110]	< 100	< 100	< 100	< 100	< 100	< 100	–	–	–
Cc1ccc(NC(=O)c2cc(C(F)(F)F)cnn2)cc1-c1ccnc(-c2ccnc(NC(=O)C3CCN(C)C3)c2)c1 (stereo not drawn) [Example 51]	< 100	< 100	100 to 500	100 to 500	100 to 500	500 to 1000	–	–	–
Cc1cc(F)c(NC(=O)c2cc(C(F)(F)F)cnn2)cc1-c1ccnc(-c2ccnc(NC(=O)C3CC3)c2)c1 [Example 60]	< 100	< 100	1000 to 10000	100 to 500	1000 to 10000	1000 to 10000	–	–	–
Cc1ccc(NC(=O)c2cc(C3CC3)cnn2)cc1-c1nc(NCCO)cc(-c2ccnc(NC(=O)C3CC3)c2)n1 [Example 102]	< 100	< 100	1000 to 10000	500 to 1000	1000 to 10000	1000 to 10000	–	–	–
CC(=N)Nc1cc(-c2cc(-c3cc(NC(=O)c4cc(C(F)(F)F)cnn4)ccc3C)ccn2)ccn1 [Example 91]	100 to 500	100 to 500	500 to 1000	500 to 1000	1000 to 10000	1000 to 10000	–	–	–
Cc1ncc(NC(=O)c2cc(C(F)(F)F)cnn2)cc1-c1ccnc(-c2ccnc(NC(=O)C3CC3)c2)c1 [Example 34]	< 100	< 100	1000 to 10000	1000 to 10000	1000 to 10000	1000 to 10000	–	–	–
CC(=O)Nc1cc(-c2cc(-c3cc(NC(=O)c4ccc(C(F)(F)F)nc4)ccc3C)ccn2)ccn1 [Example 24]	< 100	< 100	< 100	< 100	< 100	100 to 500	–	–	–
CC(=O)Nc1cc(-c2cc(-c3cc(NC(=O)c4ccc(C(F)F)nc4)c(F)cc3C)ccn2)ccn1 [Example 20]	< 100	< 100	< 100	100 to 500	< 100	100 to 500	–	–	–
Cc1ccc(NC(=O)c2ccc(C(F)(F)F)nc2)cc1-c1cncc(-c2ccnc(NC(=O)C3CC3)c2)c1 [Example 72]	< 100	< 100	500 to 1000	100 to 500	500 to 1000	1000 to 10000	–	–	–
Cc1ccc(NC(=O)c2cc(C(F)(F)F)cnn2)cc1-c1cc(N[C@H](C)CO)cc(-c2cc(NC(=O)C3CC3)ncn2)c1 [Example 123]	< 100	< 100	100 to 500	100 to 500	100 to 500	< 100	–	–	–
Cc1ccc(NC(=O)c2cc(C(C)(F)F)cnn2)cc1-c1ccnc(-c2cnn(C)n2)c1 [Example 140]	100 to 500	< 100	100 to 500	100 to 500	500 to 1000	1000 to 10000	–	–	–
Cc1ccc(NC(=O)c2cc(C(F)(F)F)cnn2)cc1-c1cc(OCCO)nc(-c2ccnc(NC(=O)C3CC3)c2)c1 [Example 131]	< 100	< 100	100 to 500	< 100	100 to 500	100 to 500	–	–	–
Cc1ccc(NC(=O)c2cncc(C(C)(C)C#N)c2)cc1-c1cncc(-c2ccnc(NC(=O)C3CC3)c2)n1 [Example 108]	< 100	< 100	100 to 500	< 100	100 to 500	1000 to 10000	–	–	–
CNCC(=O)Nc1cc(-c2cc(-c3cc(NC(=O)c4cc(C5CC5)cnn4)ccc3C)ccn2)ccn1 [Example 107]	< 100	< 100	100 to 500	100 to 500	100 to 500	100 to 500	–	–	–
Cc1ccc(NC(=O)c2cc(C(F)(F)F)cnn2)cc1-c1ccnc(-c2ccnc(NC(=O)C3(F)CC3)c2)c1 [Example 4, N-(3-(2′-(1-fluorocyclopropane-1-carboxamido)-[2,4′-bipyridin]-4-yl)-4-methylphenyl)-5-(trifluoromethyl)pyridazine-3-carboxamide]	< 100	< 100	100 to 500	100 to 500	100 to 500	100 to 500	–	–	–
CNCC(=O)Nc1cc(-c2cc(-c3cc(NC(=O)c4cc(C(F)(F)F)cnn4)ccc3C)ccn2)ccn1 [Example 88]	< 100	< 100	100 to 500	100 to 500	100 to 500	1000 to 10000	–	–	–
Cc1ccc(NC(=O)c2cc(C(F)(F)F)cnn2)cc1-c1ccnc(-c2ccnc(NC(=O)CN(C)C)c2)c1 [Example 52]	< 100	< 100	100 to 500	100 to 500	100 to 500	500 to 1000	–	–	–
COC(=O)Nc1cc(-c2cncc(-c3cc(NC(=O)c4ccc(C(F)(F)F)nc4)ccc3C)c2)ncn1 [Example 76]	< 100	< 100	–	–	–	1000 to 10000	1000 to 10000	1000 to 10000	1000 to 10000
Cc1ccc(NC(=O)c2cc(C3CC3)cnn2)cc1-c1cc(OCCO)nc(-c2ccnc(NC(=O)C3CC3)c2)c1 [Example 104]	< 100	< 100	500 to 1000	100 to 500	100 to 500	100 to 500	–	–	–

— patent US20260226084A1, “DUAL RAF AND TUBULIN INHIBITORS AND METHODS OF USE THEREOF” (Deciphera Pharmaceuticals, LLC, priority 2023, published 2026)
